Laboratory results reported in patent US20100068208A1, “Degranulation inhibitor” (priority 2005, published 2010).

Experiments:
Assay type in all cases: cell-based
[1] = test system: human mast cell line LAD 2; assay: Expression of TNF-α, CCL-2 or CCL-5 mRNA in LAD 2 (TaqMan PCR); conditions: 1 μM
Description: Human mast cell line LAD 2 was cultured in StemPro-34 medium (Invitrogen) supplemented with 100 ng/mL of stem cell factor (Immuno-Biological Laboratories Co., Ltd.). […] A 750 μL aliquot was inoculated on a 24-well plate, which was then allowed to stand in a CO2 incubator at 37° C. for 30 minutes. […] The assay was performed for the respective reaction conditions in n=3. The plate was ice-chilled 0.5, 2, 8 and 24 hours after to stop the activation of LAD 2. After centrifugation at 300×g for 5 minutes, total RNA was extracted from the precipitated cells using RNeasy Mini Kit (Qiagen) according to the protocol attached. Further in the experiments where expression levels upon stimulation by various TGR12 ligands were analyzed, LAD 2 was centrifuged at 300×g for 5 minutes and the cells precipitated were counted and suspended in the medium at 1.33×10^6 cells/mL. A 750 μL aliquot was inoculated on a 24-well plate, which was allowed to stand in a CO2 incubator at 37° C. for 30 minutes. […] The assay was performed for the respective reaction conditions in n=3. Two hours after, the plate was ice-chilled to stop the activation of LAD 2. After centrifugation at 300×g for 5 minutes, total RNA was extracted from the precipitated cells using RNeasy Mini Kit (Qiagen) according to the protocol attached. The total RNA obtained as described above was concentrated using ethachinmate according to the protocol attached and dissolved in RNase-free H2O, Next, using the solution corresponding to […] of total RNA, reverse transcription was performed by the following procedure using SuperScript II reverse transcriptase (Invitrogen) to synthesize single stranded cDNA. To the total RNA solution, 0.1 μg of random primer (Invitrogen) and 1 μL of 10 mM dNTP (Invitrogen) were added and then RNase-free H2O was added to make the whole volume 12 μL. The mixture was then incubated at 70° C. for 10 minutes and ice-cooled for a minute. After 4 μL of 5× First-Strand Buffer (attached to SuperScript II reverse transcriptase), 2 μL of 0.1M DTT (attached to SuperScript II reverse transcriptase), 1 μL of RNaseOUT (Invitrogen) and 1 μL of SuperScript II reverse transcriptase were added, the mixture was incubated at 42° C. for 50 minutes, then at 70° C. for 15 minutes and ice-cooled for 5 minutes. The thus obtained cDNA was purified using ethachinmate in accordance with the protocol attached and dissolved in Tris-EDTA buffer (Fluka).
In TaqMan PCR below, hTNFalpha-tF (SEQ ID NO: 33) and hTNFalpha-tR (SEQ ID NO: 34) were used as primers for human TNF-α quantification, hTNFalpha-tP (SEQ ID NO: 35) as a probe and hTNFalpha-standard (SEQ ID NO: 36) as a standard. For human CCL-5 quantification, hCCL5-tF (SEQ ID NO: 37) and hCCL5-tR (SEQ ID NO: 38) were used as primers, hCCL5-tP (SEQ ID NO: 39) as a probe and hCCL5 standard (SEQ ID NO: 40) as a standard. For human CCL-2 quantification, hCCL2-tF (SEQ ID NO: 41) and hCCL2-tR (SEQ ID NO: 42) were used as primers, hCCL2-tP (SEQ ID NO: 43) as a probe and hCCL2 standard (SEQ ID NO: 44) as a standard.
TaqMan PCR was performed in n=2 for each sample in a liquid volume of 15 μl using 12.5 ng of total RNA as a template. The reaction solution was composed of 900 nM primer, 250 nM probe and ½ volume of TaqMan Universal PCR Master Mix (Applied Biosystems). The reaction and analysis were performed by ABI PRISM 7900HT Sequence Detection System (Applied Biosystems). After keeping warm at 50° C. for 2 minutes and then at 95° C. for 10 minutes, the reaction cycle was set in one cycle to include 95° C. for 15 seconds and 60° C. for 1 minute and repeating the cycle 40 times.

RBL-2H3 [2] = assay: Intracellular calcium increasing activity in RBL2H3 (FLIPR); set-up: unit not given here
Description: (§1) RBL-2H3 (hereinafter RBL2H3) was incubated in α-MEM (Invitrogen) supplemented with 10% fetal calf serum. Vector plasmid pcDNA3.1 for animal cell expression, in which the nucleotide sequence containing the initiation codon to the termination codon of human TGR12 (DNA having the nucleotide sequence represented by SEQ ID NO: 32) was incorporated, was stably expressed in RBL-2H3 to establish human TGR12-expressed RBL-2H3 cell line (hereinafter RBL2H3-TGR12). RBL2H3-TGR12 was incubated in α-MEM (Invitrogen) supplemented with 10% fetal calf serum and 200 μg/mL of Geneticin.
The intracellular calcium increasing activity was assayed as follows. RBL2H3 and RBL2H3-TGR12 were plated in a 96-well plate at a density of 40,000 cells/well and incubated overnight. The medium was then discarded and 100 μL/well of 4 μM Fluo3-AM (Dojin Kagaku)-containing assay buffer [Hank's Balanced Salt Solution (Invitrogen), 20 mM HEPES (Dojin Kagaku) and 2.5 mM Probenecid (Sigma)] was added. The mixture was allowed to stand for an hour at 37° C. Various TGR12 (Peptide Institute, Inc.) or calcium ionophore A23187 (Wako Pure Chemical) was diluted in 0.05% CHAPS-containing assay buffer. After the cells were washed with the assay buffer, fluorescence emitted with changes in intracellular calcium was measured using FLIPR (Molecular Device). A sample, 50 μL, was added at a rate of 50 μL/sec. 10 seconds after initiation of the assay. Fluorescence was measured every 1 second during the first 60 seconds and every 6 seconds during the next 120 seconds. The highest fluorescence intensity during 3 minutes was made the maximum activity under the stimulation conditions, which was taken as an average of 3 wells. The EC50 values were calculated using Graphpad PRISM 4 (Graphpad Software).

RBL-2H3 [3] = assay: Degranulation promoting effect in RBL2H3 (β-hexosaminidase release)
Description: as §1
The degranulation promoting effect was determined as follows. RBL2H3 and RBL2H3-TGR12 were plated into a 96-well plate at a density of 40,000 cells/well and incubated overnight. Afterward the medium was discarded. […] The β-hexosaminidase activity in the supernatant for the degranulation assay was measured as follows to determine the degree of degranulation. The supernatant was dispensed into a 96-well plate and a 5-fold volume of 0.1M citrate (pH 4.5)/1 mM 4-methyl umbelliferyl-2-acetamido-2-deoxy-beta-D-glucopyranoside (Wako Pure Chemical) based on the volume of the supernatant was added thereto, followed by incubation at 37° C. for an hour. Subsequently, a 0.1-fold volume of 0.2 M glycine/NaCO3 (pH 10.7) based on the volume of the reaction solution was added to stop the reaction and the fluorescence was measured using Fusion-α (Perkin Elmer). For the β-hexosaminidase activity, the activity in the supernatant, which was obtained by likewise plating RBL2H3 and RBL2H3-TGR12GFP onto the plate, detaching the same with trypsin/EDTA, freeze-thawing 4 times and then centrifugation, was made the total β-hexosaminidase activity in LAD 2. The degree of degranulation was shown by a ratio of the β-hexosaminidase activity in the LAD 2 supernatant to the total β-hexosaminidase activity.

[4] = time course, 0.5 hours after the stimulation
[5] = time course, 2 hours after the stimulation
[6] = time course, 8 hours after the stimulation
[7] = time course, 24 hours after the stimulation
[8] = various TGR12 ligands experiment, two hours after stimulation

In the case of CSCC[C@H](NC(=O)[C@H](CC(C)C)NC(=O)CNC(=O)[C@H](Cc1ccccc1)NC(=O)[C@H](Cc1ccccc1)NC(=O)[C@H](CCC(N)=O)NC(=O)[C@H](CCC(N)=O)NC(=O)[C@@H]1CCCN1C(=O)[C@H](CCCCN)NC(=O)[C@@H]1CCCN1C(=O)[C@@H](N)CCCNC(=N)N)C(N)=O [substance P], the “expression level of CCL-5 in LAD 2” value [1, 4] is reported as 38107 copies, the “expression level of TNF-α in LAD 2” value [1, 4] is reported as 56065 copies and the “expression level of CCL-5 in LAD 2” value [1, 5] is reported as 88872 copies. For the same molecule, the “expression level of TNF-α in LAD 2” value [1, 5] was 1346293 copies, the “expression level of CCL-5 in LAD 2” value [1, 6] was 69921 copies and the “expression level of TNF-α in LAD 2” value [1, 6] was 54313 copies. The “expression level of CCL-5 in LAD 2” value [1, 7] was 53605 copies, the “expression level of TNF-α in LAD 2” value [1, 7] was 4332 copies and the “expression level of CCL-2 in LAD 2” value [1, 8] was 2694837 copies. For the same molecule, the “expression level of CCL-5 in LAD 2” value [1, 8] was 47117 copies, the “expression level of TNF-α in LAD 2” value [1, 8] was 173462 copies and the “maximum activity in the calcium increasing effect” value (RBL-2H3 [2]; RBL2H3, 1 nM) was 44. The “maximum activity in the calcium increasing effect” value (RBL-2H3 [2]; RBL2H3, 10 nM) was 51, the “maximum activity in the calcium increasing effect” value (RBL-2H3 [2]; RBL2H3, 100 nM) was 50 and the “maximum activity in the calcium increasing effect” value (RBL-2H3 [2]; RBL2H3, 1 μM) was 95. For the same molecule, the “maximum activity in the calcium increasing effect” value (RBL-2H3 [2]; RBL2H3, 10 μM) was 41, the “degranulation (β-hexosaminidase in supernatant to total)” value (shortened to “degranulation”) (RBL-2H3 [3]; RBL2H3, 10 nM) was 8.8% and the “degranulation” value (RBL-2H3 [3]; RBL2H3, 30 nM) was 8.9%. For the same molecule, the “degranulation” value (RBL-2H3 [3]; RBL2H3, 100 nM) was 8.9%, the “degranulation” value (RBL-2H3 [3]; RBL2H3, 300 nM) was 8.5% and the “degranulation” value (RBL-2H3 [3]; RBL2H3, 1 μM) was 8.4%. The “degranulation” value (RBL-2H3 [3]; RBL2H3, 3 μM) was 7.9%.
